In brackets after ≈: the same amount, converted by molar mass. Where two headings read alike, the source gives them in different places.

Data set [1] concerns the target T1, RET (Homo sapiens (Human), UniProt P07949).
A short description of a further data set: in vivo. To be noted: male, CD1, mouse.
A further data set can be described thus: in vitro. To be noted: dog, MDCK.
In another data set the test system is MDR1. The data set is described as follows: in vitro. Conditions: dog, MDCK-MDR1.
The target of another data set is hERG potassium channel (Homo sapiens (Human), UniProt Q12809). Conditions: 3 uM; from NDA 21-986 review; cited from earlier work.
Another data set deals with PDGFR-beta (Homo sapiens (Human), UniProt P09619). Nature of the data set: biochemical. Conditions: read-out: Residual activity (%) at 1 μM.
A further data set deals with BMPR1A (Homo sapiens (Human), UniProt P36894). Nature of the data set: biochemical. Conditions: read-out: Residual activity (%) at 1 μM.
Data set [2] concerns the target T1, RET. The data set is described as follows: biochemical. Conditions: read-out: Residual activity (%) at 1 μM, RET.
The target in another data set is MST4 (Homo sapiens (Human), UniProt Q9P289). Nature of the data set: biochemical. To be noted: read-out: Residual activity (%) at 1 μM.
Another data set concerns the target WEE1 (Homo sapiens (Human), UniProt P30291). The data set is described as follows: biochemical. To be noted: read-out: Residual activity (%) at 1 μM.
The next data set is described as follows: physchem. The data set is classed as physicochemical.
The conditions of data set [3]: human, microsomes.
The target of another data set is RAF1 (Homo sapiens (Human), UniProt P04049, Y340D/Y341D). The data set is classed as biochemical. To be noted: read-out: Residual activity (%) at 1 μM.
For data set [4], the system named is cell-panel representing haematological cancers. The data set is described as follows: haematological cancer cell-panel growth inhibition (Oncolead). The data set is classed as cell-based.
The subject of a further data set is PANC-1 cells. Nature of the data set: real-time live cell microscopy of TNF-induced cell death (YOYO-1). The data set is classed as cell-based. Conditions: real-time live cell assay.
In data set [5] the test system is immune cells present in the tumour microenvironment.
Data set [6] concerns MC38 cells.
The subject of a further data set is NFKB activity. To be noted: PANC-1 reporter cells; in words.
The test system of data set [7] is MC38 cells. The data set is described as follows: cells. Conditions: Mus musculus, MC-38, 72 h, read-out: MC38 IC50 (nM at 100 ng/mL TNF).
Data set [8] can be described thus: maximal tolerable dose (MTD) study in female C57Bl/6 mice.
The conditions of data set [9]: humans; prescribing information; cited from earlier work.
Setting [10] is: twice daily treatment, intra-tumoural.

T1 sequence (P07949 29-1114 limits assumed): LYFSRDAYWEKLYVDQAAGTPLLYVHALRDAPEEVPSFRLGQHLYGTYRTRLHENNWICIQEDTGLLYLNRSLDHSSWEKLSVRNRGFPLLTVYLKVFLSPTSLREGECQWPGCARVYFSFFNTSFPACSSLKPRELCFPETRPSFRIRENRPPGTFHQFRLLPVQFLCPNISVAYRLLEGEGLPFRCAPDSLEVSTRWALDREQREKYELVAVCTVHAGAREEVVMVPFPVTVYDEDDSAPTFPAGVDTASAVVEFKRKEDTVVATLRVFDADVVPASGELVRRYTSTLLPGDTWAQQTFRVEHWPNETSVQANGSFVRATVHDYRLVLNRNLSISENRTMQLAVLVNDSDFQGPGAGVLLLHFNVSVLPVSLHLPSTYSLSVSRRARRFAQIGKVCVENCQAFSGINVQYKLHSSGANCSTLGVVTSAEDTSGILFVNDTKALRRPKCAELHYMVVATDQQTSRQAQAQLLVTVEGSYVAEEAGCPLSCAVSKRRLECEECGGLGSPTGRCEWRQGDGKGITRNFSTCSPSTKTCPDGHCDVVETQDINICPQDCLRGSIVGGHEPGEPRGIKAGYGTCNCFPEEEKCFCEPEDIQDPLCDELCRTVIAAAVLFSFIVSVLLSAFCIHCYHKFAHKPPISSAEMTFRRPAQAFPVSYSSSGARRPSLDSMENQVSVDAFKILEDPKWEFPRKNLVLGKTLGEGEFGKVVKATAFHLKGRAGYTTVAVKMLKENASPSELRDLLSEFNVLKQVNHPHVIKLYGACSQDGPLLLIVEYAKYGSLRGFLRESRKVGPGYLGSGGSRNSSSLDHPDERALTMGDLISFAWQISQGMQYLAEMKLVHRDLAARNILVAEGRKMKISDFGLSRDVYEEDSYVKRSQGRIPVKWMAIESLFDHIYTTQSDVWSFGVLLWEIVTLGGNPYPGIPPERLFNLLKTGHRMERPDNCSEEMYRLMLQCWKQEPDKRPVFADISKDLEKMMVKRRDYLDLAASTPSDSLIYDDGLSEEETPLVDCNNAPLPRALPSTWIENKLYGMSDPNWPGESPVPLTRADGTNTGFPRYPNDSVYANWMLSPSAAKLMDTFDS
BMPR1A, sequence (P36894 24-532 limits assumed): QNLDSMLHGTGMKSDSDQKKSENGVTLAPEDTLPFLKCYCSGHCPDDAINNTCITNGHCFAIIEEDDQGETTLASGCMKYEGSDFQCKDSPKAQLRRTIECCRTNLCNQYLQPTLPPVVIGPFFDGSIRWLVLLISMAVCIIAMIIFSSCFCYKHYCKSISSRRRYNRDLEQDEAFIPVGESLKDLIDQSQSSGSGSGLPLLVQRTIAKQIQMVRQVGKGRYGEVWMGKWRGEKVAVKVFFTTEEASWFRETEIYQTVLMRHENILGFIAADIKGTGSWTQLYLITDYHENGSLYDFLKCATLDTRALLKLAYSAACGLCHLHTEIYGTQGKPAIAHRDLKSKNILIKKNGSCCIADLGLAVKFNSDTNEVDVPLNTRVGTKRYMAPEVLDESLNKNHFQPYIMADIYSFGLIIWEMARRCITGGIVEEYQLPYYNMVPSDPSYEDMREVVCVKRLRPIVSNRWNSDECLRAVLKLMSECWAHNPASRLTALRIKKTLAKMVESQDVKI
RAF1, sequence (P04049 307-648 Y340D/Y341D limits assumed): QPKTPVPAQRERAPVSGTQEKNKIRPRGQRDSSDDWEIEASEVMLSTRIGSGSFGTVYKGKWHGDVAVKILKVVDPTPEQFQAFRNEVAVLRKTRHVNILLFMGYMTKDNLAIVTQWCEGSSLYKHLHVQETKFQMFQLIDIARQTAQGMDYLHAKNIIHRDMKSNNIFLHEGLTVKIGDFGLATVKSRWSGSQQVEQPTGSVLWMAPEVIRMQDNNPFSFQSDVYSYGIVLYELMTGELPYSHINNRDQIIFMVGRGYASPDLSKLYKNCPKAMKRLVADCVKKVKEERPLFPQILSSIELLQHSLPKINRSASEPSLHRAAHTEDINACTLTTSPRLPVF
PDGFR-beta, sequence (P09619 33-1106 limits assumed): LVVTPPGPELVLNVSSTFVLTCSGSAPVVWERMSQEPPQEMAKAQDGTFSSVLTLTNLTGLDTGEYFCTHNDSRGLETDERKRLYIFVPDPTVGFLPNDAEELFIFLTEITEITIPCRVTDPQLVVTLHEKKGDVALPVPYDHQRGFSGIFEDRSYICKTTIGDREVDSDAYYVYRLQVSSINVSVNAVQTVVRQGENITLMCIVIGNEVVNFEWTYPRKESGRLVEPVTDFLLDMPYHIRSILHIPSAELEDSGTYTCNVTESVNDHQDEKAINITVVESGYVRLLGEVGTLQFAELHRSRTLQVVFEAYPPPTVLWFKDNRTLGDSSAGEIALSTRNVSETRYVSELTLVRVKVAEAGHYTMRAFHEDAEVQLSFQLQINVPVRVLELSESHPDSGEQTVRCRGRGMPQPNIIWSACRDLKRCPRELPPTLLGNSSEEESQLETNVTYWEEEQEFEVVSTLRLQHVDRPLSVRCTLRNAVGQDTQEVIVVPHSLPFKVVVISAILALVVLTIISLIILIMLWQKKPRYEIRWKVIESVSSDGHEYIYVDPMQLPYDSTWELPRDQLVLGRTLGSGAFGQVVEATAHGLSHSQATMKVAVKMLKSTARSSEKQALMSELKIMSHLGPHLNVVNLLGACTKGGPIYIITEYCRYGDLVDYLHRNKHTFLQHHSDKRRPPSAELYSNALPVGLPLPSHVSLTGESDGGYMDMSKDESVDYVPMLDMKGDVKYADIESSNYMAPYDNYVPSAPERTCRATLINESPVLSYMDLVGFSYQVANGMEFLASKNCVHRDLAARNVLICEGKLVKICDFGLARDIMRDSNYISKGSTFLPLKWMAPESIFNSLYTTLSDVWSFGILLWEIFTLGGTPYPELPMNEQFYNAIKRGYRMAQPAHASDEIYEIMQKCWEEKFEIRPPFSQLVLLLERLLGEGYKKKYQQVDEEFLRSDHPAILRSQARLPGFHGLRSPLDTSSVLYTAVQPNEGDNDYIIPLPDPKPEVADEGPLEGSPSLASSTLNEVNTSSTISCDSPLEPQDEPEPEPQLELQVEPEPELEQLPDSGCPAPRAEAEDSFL

Consider `Cc1nc(Nc2ncc(C(=O)Nc3c(C)cccc3Cl)s2)cc(N2CCN(CCO)CC2)n1` [Compound A8, N-(2-chloro-6-methylphenyl)-2-((6-(4-(2-hydroxyethyl)piperazin-1-yl)-2-methylpyrimidin-4-yl)amino)thiazole-5-carboxamide, reference compound], for which the “Residual activity (%) at 1 μM” value on RET [1] was 39%. In “in vivo” (plasma, iv, 1 mg/kg), the Cmax was 1280 nM, the MRT inf worked out at 96 min, the MRT last is 78 min and the Tmax stood at 4.8 min. Besides, in the data set “in vivo” (plasma, iv, 1 mg/kg), the volume of distribution (Vd) came out at 3.1 L/kg and the clearance stood at 32 mL/min/kg. Further, in the data set “in vivo” (plasma, po, 30 mg/kg), the Cmax was found to be 1130 nM, the Tmax was 120 min and the bioavailability worked out at 21%. In addition, the Papp in the data set “in vitro” is 49 ×10⁻⁶ cm/s. The Papp with MDR1 came out at 105 ×10⁻⁶ cm/s. Further, the “inhibition of hERG currents” value at hERG potassium channel is “about 6%”. The remaining activity at 1 µM at PDGFR-beta was 2%. The remaining activity at 1 µM at BMPR1A was 42%. In addition, the remaining activity at 1 µM on RET [2] was below 40%. For the same molecule, the remaining activity at 1 µM on MST4 is 79%. Moreover, on WEE1, the remaining activity at 1 µM came out at 61%.

In the data set “physchem”, `Cc1nc(Nc2ncc(C(=O)Nc3c(Cl)ccnc3C)s2)cc(N2CCN(CCO)CC2)n1` [Compound B3, N-(4-chloro-2-methylpyridin-3-yl)-2-((6-(4-(2-hydroxyethyl)piperazin-1-yl)-2-methylpyrimidin-4-yl)amino)thiazole-5-carboxamide] gave a kinetic solubility of 82 µM (≈ 40.1 µg/mL). This molecule gave a solubility (kinetic) in “physchem” (kinetic from dmso stock) of 82 µM (≈ 40.1 µg/mL). For the same molecule, in data set [3], the Intrinsic clearance (L/min/mg) worked out at 24 µL/min/mg, the “half-life” value is listed as 58 min and the “% Remaining at 40 min (%)” value is given as 60%. Moreover, in the data set with human plasma-proteins, the “Percentage unbound (%)” value was found to be 7%. In addition, the “Percentage unbound (%)” value in the data set with murine plasma-proteins is 11%. In addition, in the data set “in vivo” (plasma, iv, 1 mg/kg), the AUC(0-inf) stood at 0.45 µM·h, the AUC(0-t) amounted to 0.437 µM·h, the highest level (Cmax) was 1230 nM and the MRT inf stood at 17.4 min. In “in vivo” (plasma, iv, 1 mg/kg), the MRT last was found to be 15 min, the Tmax was found to be 4.98 min, the Vd is 1.31 L/kg and the clearance was determined as 75 mL/min/kg. In addition, in “in vivo” (plasma, po, 30 mg/kg), the AUC(0-inf) is 0.687 µM·h, the AUC(0-t) amounted to 0.589 µM·h, the Cmax amounted to 202 nM and the Tmax is 30 min. Besides, the bioavailability in “in vivo” (plasma, po, 30 mg/kg) came to 4%. This molecule yielded a Papp in the data set “in vitro” of 20 ×10⁻⁶ cm/s. In the data set with MDR1, this molecule registered an apparent permeability (Papp) of 20 ×10⁻⁶ cm/s.

In the case of `Cc1nc(Nc2ncc(C(=O)Nc3c(C)csc3Cl)s2)cc(N2CCN(CCO)CC2)n1` [Compound C7, N-(2-chloro-4-methylthiophen-3-yl)-2-((6-(4-(2-hydroxyethyl)piperazin-1-yl)-2-methylpyrimidin-4-yl)amino)thiazole-5-carboxamide], on RAF1, the remaining activity at 1 µM was 4 to 5%. Further, the GI50 activity entry in [4] (on about 5 cell lines of the panel) is reported as “sub-nanomolar”. Besides, the GI50 in data set [4] (read-out: GI50 activity) is below 10 nM. Besides, in the data set on PANC-1 cells, the “sensitisation to the effect of rHuTNF” value was “sensitise PANC-1 cells to the effect of rHuTNF”. Also, the “% Remaining at 40 min (%)” value in data set [3] is recorded as 1%. Further, the “Percentage unbound (%)” value in the data set with human plasma-proteins (human plasma-protein binding) is given as below 1%. Also, the “Percentage unbound (%)” value in the data set with murine plasma-proteins (murine plasma protein binding) was 5%. Besides, the “immunosuppressive M2 macrophages (CD206+MHC-II+)” value in [5] (mouse, in vivo) was “significantly reduced”. In data set [5] (setting [10]), the “activation of cytotoxic T lymphocytes, CD25+CD69+” value was “increased activation” and the “activation of cytotoxic T lymphocytes, granzyme B expression” value is “increased activation”. For the same molecule, the “sensitisation to the cytotoxic effect of TNF” value with MC38 cells [6] is given as “sensitised to the cytotoxic effect of TNF”. The “TNF-induced activity of NFkB” value in the data set with NFKB activity is listed as “inhibit TNF-induced activity of NFkB in a dose-dependent manner”. Moreover, in the data set with HDAC4 phosphorylation, the “phosphorylation of HDAC4” value is “inhibit the phosphorylation of HDAC4”. Also, the IC50 in the data set with MC38 cells [7] was below 100 nM. Also, in the data set “in vivo” (in vivo, iv, 1 mg/kg), the MRT inf stood at 60 min and the MRT last stood at 42 min. For the same molecule, in data set [8] (33 and 100 mg/kg QD or BID, 7 consecutive days), the signs of intolerance result is on record as “did not show any signs of intolerance”. Further, in data set [8] (all dosing groups vs non-treated control animals), the body weight entry is listed as “minor reduction in body weight”. In addition, the tolerable dose entry in data set [8] (gavage, female C57BL/6 animals, seven days) is reported as “up to 100 mg/kg BID”.

On to `Cc1cn(-c2cc(NC(=O)c3ccc(C)c(Nc4nccc(-c5cccnc5)n4)c3)cc(C(F)(F)F)c2)cn1` [nilotinib], for which the “terminal / elimination half-life” value in data set [9] is “approximately 17 hours”.

The values are drawn from patent US12172993B2 (priority 2018, dated 2024).
